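Cultured in 96-well plates, cells were exposed to test compound for 48 hours across five concentrations. GI50 marks 50% less growth. TGI: total growth inhibition.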
Assays:
Test in all cases: NCI tumour cell line growth inhibition, 48 h
786-0 renal = system: 786-0 renal
A498 renal = system: A498 renal
A549 NSCLC = system: A549 NSCLC
ACHN renal = system: ACHN renal
BT-549 breast = system: BT-549 breast
CAKI-1 renal = system: CAKI-1 renal
CCRF-CEM leukemia = system: CCRF-CEM leukemia
COLO 205 colon = system: COLO 205 colon
DU-145 prostate = system: DU-145 prostate
EKVX NSCLC = system: EKVX NSCLC
HCC-2998 colon = system: HCC-2998 colon
HCT-116 colon = system: HCT-116 colon
HCT-15 colon = system: HCT-15 colon
HL-60(TB) leukemia = system: HL-60(TB) leukemia
HOP-62 NSCLC = system: HOP-62 NSCLC
HOP-92 NSCLC = system: HOP-92 NSCLC
HS 578T breast = system: HS 578T breast
HT29 colon = system: HT29 colon
IGROV1 ovarian = system: IGROV1 ovarian
K-562 leukemia = system: K-562 leukemia
KM12 colon = system: KM12 colon
LOX IMVI melanoma = system: LOX IMVI melanoma
M14 melanoma = system: M14 melanoma
MALME-3M melanoma = system: MALME-3M melanoma
MCF7 breast = system: MCF7 breast
MDA-MB-231 breast = system: MDA-MB-231 breast
MDA-MB-435 = system: MDA-MB-435
MDA-MB-468 breast = system: MDA-MB-468 breast
MOLT-4 leukemia = system: MOLT-4 leukemia
NCI-H226 lung = system: NCI-H226 lung
NCI-H23 lung = system: NCI-H23 lung
NCI-H460 lung = system: NCI-H460 lung
NCI-H522 lung = system: NCI-H522 lung
NCI/ADR-RES ovarian = system: NCI/ADR-RES ovarian
OVCAR-3 ovarian = system: OVCAR-3 ovarian
OVCAR-4 ovarian = system: OVCAR-4 ovarian
OVCAR-5 ovarian = system: OVCAR-5 ovarian
OVCAR-8 ovarian = system: OVCAR-8 ovarian
PC-3 prostate = system: PC-3 prostate
RPMI-8226 leukemia = system: RPMI-8226 leukemia
RXF 393 renal = system: RXF 393 renal
SF-268 CNS = system: SF-268 CNS
SF-295 CNS = system: SF-295 CNS
SF-539 CNS = system: SF-539 CNS
SK-MEL-2 melanoma = system: SK-MEL-2 melanoma
SK-MEL-28 melanoma = system: SK-MEL-28 melanoma
SK-MEL-5 melanoma = system: SK-MEL-5 melanoma
SK-OV-3 ovarian = system: SK-OV-3 ovarian
SN12C renal = system: SN12C renal
SNB-19 CNS = system: SNB-19 CNS
SNB-75 CNS = system: SNB-75 CNS
SR leukemia = system: SR leukemia
SW-620 colon = system: SW-620 colon
T-47D breast = system: T-47D breast
TK-10 renal = system: TK-10 renal
U251 CNS = system: U251 CNS
UACC-257 melanoma = system: UACC-257 melanoma
UACC-62 melanoma = system: UACC-62 melanoma
UO-31 renal = system: UO-31 renal

Structure (SMILES): N#C/C(=C\c1ccc(N(c2ccccc2)c2ccccc2)cc1)C(N)=O
- GI50 (786-0 renal): 18 µM
- TGI (786-0 renal): > 92.1 µM
- GI50 (A498 renal): 1.11 µM
- TGI (A498 renal): 2.61 µM
- GI50 (A549 NSCLC): 22.7 µM
- TGI (A549 NSCLC): > 100 µM
- GI50 (ACHN renal): 64.4 µM
- TGI (ACHN renal): > 100 µM
- GI50 (BT-549 breast): > 100 µM
- TGI (BT-549 breast): > 100 µM
- GI50 (CAKI-1 renal): 0.308 µM
- TGI (CAKI-1 renal): 2.48 µM
- GI50 (CCRF-CEM leukemia): > 100 µM
- TGI (CCRF-CEM leukemia): > 100 µM
- GI50 (COLO 205 colon): 15.3 µM
- TGI (COLO 205 colon): > 100 µM
- GI50 (DU-145 prostate): > 100 µM
- TGI (DU-145 prostate): > 100 µM
- GI50 (EKVX NSCLC): > 100 µM
- TGI (EKVX NSCLC): > 100 µM
- GI50 (HCC-2998 colon): > 64.1 µM
- TGI (HCC-2998 colon): > 100 µM
- GI50 (HCT-116 colon): 0.758 µM
- TGI (HCT-116 colon): > 100 µM
- GI50 (HCT-15 colon): > 100 µM
- TGI (HCT-15 colon): > 100 µM
- GI50 (HL-60(TB) leukemia): > 100 µM
- TGI (HL-60(TB) leukemia): > 100 µM
- GI50 (HOP-62 NSCLC): 3.9 µM
- TGI (HOP-62 NSCLC): 31.5 µM
- GI50 (HOP-92 NSCLC): 29.7 µM
- TGI (HOP-92 NSCLC): > 92.4 µM
- GI50 (HS 578T breast): 38.4 µM
- TGI (HS 578T breast): > 100 µM
- GI50 (HT29 colon): 16.9 µM
- TGI (HT29 colon): > 100 µM
- GI50 (IGROV1 ovarian): 0.946 µM
- TGI (IGROV1 ovarian): 4.64 µM
- GI50 (K-562 leukemia): 43.9 µM
- TGI (K-562 leukemia): > 100 µM
- GI50 (KM12 colon): > 100 µM
- TGI (KM12 colon): > 100 µM
- GI50 (LOX IMVI melanoma): > 89 µM
- TGI (LOX IMVI melanoma): > 100 µM
- GI50 (M14 melanoma): > 100 µM
- TGI (M14 melanoma): > 100 µM
- GI50 (MALME-3M melanoma): 42.9 µM
- TGI (MALME-3M melanoma): > 100 µM
- GI50 (MCF7 breast): 0.661 µM
- TGI (MCF7 breast): > 100 µM
- GI50 (MDA-MB-231 breast): > 72.5 µM
- TGI (MDA-MB-231 breast): > 100 µM
- GI50 (MDA-MB-435): > 100 µM
- TGI (MDA-MB-435): > 100 µM
- GI50 (MDA-MB-468 breast): 0.145 µM
- TGI (MDA-MB-468 breast): 0.351 µM
- GI50 (MOLT-4 leukemia): > 100 µM
- TGI (MOLT-4 leukemia): > 100 µM
- GI50 (NCI-H226 lung): 0.24 µM
- TGI (NCI-H226 lung): 0.989 µM
- GI50 (NCI-H23 lung): 15.3 µM
- TGI (NCI-H23 lung): > 100 µM
- GI50 (NCI-H460 lung): 1.74 µM
- TGI (NCI-H460 lung): > 67.2 µM
- GI50 (NCI-H522 lung): > 78.9 µM
- TGI (NCI-H522 lung): > 100 µM
- GI50 (NCI/ADR-RES ovarian): 21.6 µM
- TGI (NCI/ADR-RES ovarian): > 100 µM
- GI50 (OVCAR-3 ovarian): 4.6 µM
- TGI (OVCAR-3 ovarian): > 95.9 µM
- GI50 (OVCAR-4 ovarian): 2.28 µM
- TGI (OVCAR-4 ovarian): 16.1 µM
- GI50 (OVCAR-5 ovarian): 1.12 µM
- TGI (OVCAR-5 ovarian): 3.07 µM
- GI50 (OVCAR-8 ovarian): 35.1 µM
- TGI (OVCAR-8 ovarian): > 100 µM
- GI50 (PC-3 prostate): > 69.8 µM
- TGI (PC-3 prostate): > 100 µM
- GI50 (RPMI-8226 leukemia): 12.4 µM
- TGI (RPMI-8226 leukemia): > 100 µM
- GI50 (RXF 393 renal): 1.33 µM
- TGI (RXF 393 renal): 20.3 µM
- GI50 (SF-268 CNS): 67.3 µM
- TGI (SF-268 CNS): > 100 µM
- GI50 (SF-295 CNS): 7.24 µM
- TGI (SF-295 CNS): > 100 µM
- GI50 (SF-539 CNS): 68 µM
- TGI (SF-539 CNS): > 100 µM
- GI50 (SK-MEL-2 melanoma): 29 µM
- TGI (SK-MEL-2 melanoma): > 100 µM
- GI50 (SK-MEL-28 melanoma): > 100 µM
- TGI (SK-MEL-28 melanoma): > 100 µM
- GI50 (SK-MEL-5 melanoma): 11 µM
- TGI (SK-MEL-5 melanoma): > 100 µM
- GI50 (SK-OV-3 ovarian): 25.3 µM
- TGI (SK-OV-3 ovarian): > 100 µM
- GI50 (SN12C renal): > 77.1 µM
- TGI (SN12C renal): > 100 µM
- GI50 (SNB-19 CNS): 37.3 µM
- TGI (SNB-19 CNS): > 100 µM
- GI50 (SNB-75 CNS): 19.8 µM
- TGI (SNB-75 CNS): > 93.9 µM
- GI50 (SR leukemia): > 100 µM
- TGI (SR leukemia): > 100 µM
- GI50 (SW-620 colon): 8.69 µM
- TGI (SW-620 colon): > 100 µM
- GI50 (T-47D breast): 1.06 µM
- TGI (T-47D breast): 5.27 µM
- GI50 (TK-10 renal): 0.797 µM
- TGI (TK-10 renal): 3.92 µM
- GI50 (U251 CNS): 2.99 µM
- TGI (U251 CNS): > 100 µM
- GI50 (UACC-257 melanoma): 0.839 µM
- TGI (UACC-257 melanoma): 3.53 µM
- GI50 (UACC-62 melanoma): 0.308 µM
- TGI (UACC-62 melanoma): 1.37 µM
- GI50 (UO-31 renal): 25.7 µM
- TGI (UO-31 renal): > 100 µM

Source: PubChem BioAssay (NCI)
